From patent publication US20050281848A1, “Oleaginous ointments comprising two solubilized bioactive agents for the treatment of psoriasis” (GALDERMA S.A., priority 2004, published 2005)

Assays:
Assay type in all cases: physicochemical
[1] = Chemical stability of the actives in Composition 2
Procedure: The compositions of the invention are found particularly effective in conserving satisfactory chemical stability of active principles which are sensitive to oxidation, to water and to aqueous media in general. The term “satisfactory chemical stability” refers to a composition which over a period of at least 3 months, respectively at ambient temperature and at 40° C.:
has an active principles content of at least 80%, in particular at least 90% and more particularly at least 95% of the initial weight content.

[2] = Stability of calcitriol in Cetiol SN (HPLC assay against a reference); details: for Calcitriol content, T0 taken as 100%: calcitriol 30 ppm in Cetiol SN, 0.4% BHT, under nitrogen
Procedure: b) Stability of Calcitriol in Cetiol SN (Cetearyl Isononanoate): A solution is prepared of calcitriol 30 ppm in qs 100% of Cetiol SN in the presence of 0.4% of BHT and kept under nitrogen. The initial time (TO) is taken as 100%.

[3] = Stability of calcitriol in Miglyol 812 (HPLC assay against a reference); details: for Calcitriol content, T0 taken as 100%: calcitriol 30 ppm in Miglyol 812, 0.4% BHT, under nitrogen
Procedure: The stability of calcitriol was evaluated in the following two oil solvents: Miglyol 812 and Cetiol SN. a) Stability of Calcitriol in Miglyol 812 (Caprylic and 20 Capric Triglycerides): A solution is prepared of calcitriol 30 ppm in qs 100% of Miglyol 812 in the presence of 0.4% of BHT (antioxidant), kept under nitrogen. The initial time (TO) is taken as 100%.

Row | Chemical stability: content of the active ([1]; T0, AT) | Chemical stability: content of the active ([1]; T15 d, 40° C.) | Chemical stability: content of the active ([1]; T15 d, AT) | Calcitriol content, T0 taken as 100% ([2]; +4° C., T2 weeks) | Calcitriol content, T0 taken as 100% ([2]; +4° C., T4 weeks) | Calcitriol content, T0 taken as 100% ([2]; +40° C., T2 weeks) | Calcitriol content, T0 taken as 100% ([2]; +40° C., T4 weeks) | Calcitriol content, T0 taken as 100% ([2]; AT, T2 weeks) | Calcitriol content, T0 taken as 100% ([2]; AT, T4 weeks) | Stability in solution ([2]; in cetearyl isononanoate, 1 month) | Calcitriol content, T0 taken as 100% ([3]; +4° C., T2 weeks) | Calcitriol content, T0 taken as 100% ([3]; +4° C., T4 weeks) | Calcitriol content, T0 taken as 100% ([3]; +40° C., T2 weeks) | Calcitriol content, T0 taken as 100% ([3]; +40° C., T4 weeks) | Calcitriol content, T0 taken as 100% ([3]; ambient temperature, T2 weeks) | Calcitriol content, T0 taken as 100% ([3]; ambient temperature, T4 weeks) | Stability in solution ([3]; in caprylic/capric triglyceride, 1 month) | Structure (SMILES)
1 | PROPIONATE: 97.3% | PROPIONATE: 92.3 | PROPIONATE: 95.2 |  |  |  |  |  |  |  |  |  |  |  |  |  |  | CCC(=O)O[C@]1(C(=O)CCl)[C@@H](C)C[C@H]2[C@@H]3CCC4=CC(=O)C=C[C@]4(C)[C@@]3(F)[C@@H](O)C[C@@]21C [CLOBETASOL PROPIONATE, clobetasol 17-propionate]
2 | CALCITRIOL: 97.6% | CALCITRIOL: 86.8 | CALCITRIOL: 95.1 | 103.7% | 97.9% | 99.4% | 98.1% | 99.6% | 98.7% | stable | 98.2% | 105.2% | 93.1% | 95.0% | 95.8% | 98.0% | stable | C=C1/C(=C\C=C2/CCC[C@]3(C)[C@@H]([C@H](C)CCCC(C)(C)O)CC[C@@H]23)C[C@@H](O)C[C@@H]1O [calcitriol]
